The subject of assay [1] is pY705-STAT3 in Peripheral Blood Mononuclear Cells (PBMC). The assay can be described thus: MSD-pSTAT-PBMC Assay (pSTAT3, IL-6 stimulated). The format is cell-based, Human. Particulars: Homo sapiens, compound 3 hrs, then 10 ng/mL IL-6 for 10 min. The source says:
Cryopreserved Peripheral Blood Mononuclear Cells (PBMC) are from AllCells. Recombinant Human IL-4 and IL-6 are from Peprotech. Mouse monoclonal anti-STAT3 antibody, rabbit monoclonal anti-pY705-STAT3 antibody, rabbit monoclonal Anti-pY641-STAT6 antibody, and lysis buffer are from Cell Signaling Technology (CST). Mouse monoclonal anti-STAT6 antibody is from BioLegend. Assay plates, blocker, and anti-rabbit secondary antibody are from Meso Scale Discovery (MSD).
Cryopreserved PBMCs were thawed out and allowed to recover overnight in IMDM+10% heat-inactivated FBS prior to plating 50,000 (STAT3) or 25,000 (STAT6) cells per well in 96-well U-bottom tissue culture plates. Cells were treated with compound for 3 hrs, then stimulated with 10 ng/mL IL-6 (STAT3) or 1 ng/mL IL-4 (STAT6) for 10 min. Cells were then spun down and washed with ice-cold PBS prior to lysing the cell pellet with 1× lysis buffer (CST) with 1×HALT protease and phosphatase inhibitor cocktail (Thermo). Lysates were transferred to and incubated overnight at 4° C. with shaking in QuickPlex 96-well high bind assay plates (MSD) pre-coated overnight with 30 μL per well of 0.6 μg/mL mouse monoclonal anti-STAT3 antibody (STAT3) or 2 μg/mL mouse monoclonal anti-STAT6 antibody (STAT6) in 1×PBS, and pre-blocked for 1 hour with 3% Blocker-A (MSD). Captured protein in the assay plates were then washed and probed with 25 μL per well of 0.25 μg/ml rabbit monoclonal anti-pY705-STAT3 antibody (STAT3) or […] rabbit monoclonal Anti-pY641-STAT6 antibody (STAT6) in 1% Blocker-A for 1 hour at room temperature with shaking, then washed and probed with 25 ul per well of 1 ug/ml Sulfo-TAG Labeled Goat Anti-Rabbit Antibody (MSD) in 1% Blocker-A for 1 hour at room temperature with shaking. Assay plates were then washed and 150 μL of 1× Read Buffer-T (MSD) was added to each well prior to reading on an SQ120 MSD Plate Reader. Assay signal from each sample was subtracted by the signal from unstimulated control wells and normalized to DMSO control wells. IC50 values were calculated using Graph Pad Prism Dose-Response Nonlinear Regression with variable slope. For both pSTAT3 and pSTAT6 A=≤100 nM; B=>100-1000 nM; C=>1000-3000 nM; and D=>3 μM.

The test system of assay [2] is pY641-STAT6 in Peripheral Blood Mononuclear Cells (PBMC). The assay can be described thus: MSD-pSTAT-PBMC Assay (pSTAT6, IL-4 stimulated). Type of assay: cell-based, Human. The conditions noted are these: Homo sapiens, compound 3 hrs, then 1 ng/mL IL-4 for 10 min. The procedure, abridged: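 Phospho-STAT readout used MSD electrochemiluminescence with total STAT3 or STAT6 capture in lysates of cryopreserved human PBMCs. Cells had 3 h compound exposure before a 10 min cytokine pulse: IL-6 10 ng/mL for pSTAT3, IL-4 1 ng/mL for pSTAT6. IC50 came from background-subtracted, DMSO-normalised signal, with categories A≤100 nM up to D>3 μM.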

A value given as a limit tells only on which side of the number the result lay.

Take `CC(=O)N1CC[C@H]2CC[C@@H](C(=O)N(C)c3ccccc3)N2C(=O)[C@@H](NC(=O)c2cc3cc(C(F)(F)P(=O)(OCCSC(=O)C(C)(C)C)OCCSC(=O)C(C)(C)C)ccc3s2)C1` [Compound 291, S,S′-(((((2-(((5S,8S, 10aR)-3-acetyl-8-(methyl (phenyl)carbamoyl)-6-oxodecahydro-pyrrolo[1,2-a][1,5]diazocin-5-yl)carbamoyl)benzo[b]thiophen-5-yl)difluoro-methyl)phos-phoryl)bis(oxy))bis(ethane-2,1-diyl)) bis(2,2-dimethylpro-panethioate)]: the IC50 in assay [1] and in assay [2] was above 3000 nM in each case.

As for `CC(=O)N1CC[C@H]2CC[C@@H](C(=O)Nc3cnc(S(C)(=O)=O)nc3)N2C(=O)[C@@H](NC(=O)c2cc3cc(C(F)(F)P(=O)(OCOC(=O)C(C)(C)C)OCOC(=O)C(C)(C)C)ccc3s2)C1` [Compound 309, ((((2-(((5S, 8S,10aR)-3-acetyl-8-((2-(methyl-sulfonyl)pyrimidin-5-yl)carbamoyl)-6-oxodecahydro-pyrrolo[1,2-a][1,5]diazocin-5-yl)carbamoyl)benzo[b]thiophen-5-yl)difluoro-methyl)phos-phoryl)bis(oxy)) bis(methylene) bis(2,2-dimethylpro-panoate)], the IC50 is above 3000 nM in assay [1] and 1000 to 3000 nM in assay [2].

`CC(=O)N1CC[C@H]2CC[C@@H](C(=O)N(C)c3ccc(-c4ccccc4)cc3)N2C(=O)[C@@H](NC(=O)c2cc3cc(C(F)(F)P(=O)(OCOC(=O)C(C)(C)C)OCOC(=O)C(C)(C)C)ccc3s2)C1` [Compound 310, ((((2-(((5S, 8S,10aR)-8-([1,1′-biphenyl]-4-yl(methyl)carbamoyl)-3-acetyl-6-oxodecahydro-pyrrolo[1,2-a][1,5]diazocin-5-yl)carbamoyl)benzo[b]thiophen-5-yl)difluoro-methyl)phos-phoryl)bis(oxy)) bis(methylene) bis(2,2-dimethylpro-panoate)]: the IC50 in assay [1] and in assay [2] was 100 to 1000 nM each time.

On to `CCCN(CCC)C(=O)OCOP(=O)(OCOC(=O)N(CCC)CCC)C(F)(F)c1ccc2sc(C(=O)N[C@@H]3CN(C(C)=O)CC[C@@H]4CC[C@H](C(=O)N(C)c5ccccc5)N4C3=O)cc2c1` [Compound 292, ((((2-(((5R,8R, 10aS)-3-acetyl-8-(methyl (phenyl)carbamoyl)-6-oxodecahydro-pyrrolo[1,2-a][1,5]diazocin-5-yl)carbamoyl)benzo[b]thiophen-5-yl)difluoro-methyl)phos-phoryl)bis(oxy)) bis(methylene) bis(dipropyl-carbamate)], for which the concentration for half-maximal inhibition (IC50) in assay [1] and in assay [2] was above 3000 nM in each case.

In the case of `CNC(=O)C[C@@H](Cc1ccc(OC)cc1)NC(=O)[C@@H]1CC[C@@H]2CCN(C(=O)c3n[nH]c4ccc(C)cc34)C[C@H](NC(=O)c3ccc4ccc(C(F)(F)P(=O)(O)O)cc4c3)C(=O)N21` [Compound 239, (difluoro(7-(((5S,8S,10aR)-8-(((R)-1-(4-methoxyphenyl)-4-(methylamino)-4-oxobutan-2-yl)carbamoyl)-3-(5-methyl-1H-indazole-3-carbonyl)-6-oxodecahydropyrrolo[1,2-a][1,5]diazocin-5-yl)carbamoyl)naphthalen-2-yl)methyl)phosphonic acid], the IC50 in assay [1] and in assay [2] was 100 to 1000 nM throughout.

Take `CC(=O)N1CC[C@H]2CC[C@@H](C(=O)NC3CCN(S(C)(=O)=O)CC3)N2C(=O)[C@@H](NC(=O)c2cc3cc(C(F)(F)P(=O)(OCOC(=O)C(C)(C)C)OCOC(=O)C(C)(C)C)ccc3s2)C1` [Compound 313, ((((2-(((5S, 8S,10aR)-3-acetyl-8-((1-(methyl-sulfonyl)piperidin-4-yl)carbamoyl)-6-oxodecahydro-pyrrolo[1,2-a][1,5]diazocin-5-yl)carbamoyl)benzo[b]thiophen-5-yl)difluoro-methyl)phos-phoryl)bis(oxy)) bis(methylene) bis(2,2-dimethylpro-panoate)]: the half-maximal inhibitory concentration (IC50) was above 3000 nM in assay [1] and 1000 to 3000 nM in assay [2].

In the case of `COC(=O)N1CC[C@H]2CC[C@@H](C(=O)N3C[C@H](c4ccccc4)[C@@H](C#N)C3)N2C(=O)[C@@H](NC(=O)c2cc3cc(C(F)(F)P(=O)(OCOC(=O)C(C)(C)C)OCOC(=O)C(C)(C)C)ccc3s2)C1` (relative stereo) [Compound 349, ((((2-(((5S,8S,10aR)-8-((rel-trans)-3-cyano-4-phenylpyrrolidine-1-carbonyl)-3-(methoxycarbonyl)-6-oxodecahydropyrrolo[1,2-a][1,5]diazocin-5-yl)carbamoyl)benzo[b]thiophen-5-yl)difluoromethyl)phosphoryl)bis(oxy)) bis(methylene) bis(2,2-dimethylpropanoate)], the IC50 was 100 to 1000 nM in assay [1] and at most 100 nM in assay [2].

Regarding `CC(=O)N1CC[C@H]2CC[C@@H](C(=O)Nc3ccc(-c4ccccc4)cc3)N2C(=O)[C@@H](NC(=O)c2cc3cc(C(F)(F)P(=O)(OCOC(=O)C(C)(C)C)OCOC(=O)C(C)(C)C)ccc3[nH]2)C1` [Compound 308, ((((2-(((5S, 8S,10aR)-8-([1,1′-biphenyl]-4-ylcarbamoyl)-3-acetyl-6-oxodecahydro-pyrrolo[1,2-a][1,5]diazocin-5-yl)carbamoyl)-1H-indol-5-yl)difluoro-methyl)phos-phoryl)bis(oxy)) bis(methylene) bis(2,2-dimethylpro-panoate)], the IC50 in assay [1] and in assay [2] was 100 to 1000 nM throughout.

For `CCCOC(=O)OC(C)OP(=O)(OC(C)OC(=O)OCCC)C(F)(F)c1ccc2sc(C(=O)N[C@H]3CN(C(C)=O)CC[C@H]4CC[C@@H](C(=O)N(C)c5ccccc5)N4C3=O)cc2c1` (stereo partly drawn) [Compound 293, ((((2-(((5S,8S, 10aR)-3-acetyl-8-(methyl (phenyl)carbamoyl)-6-oxodecahydro-pyrrolo[1,2-a][1,5]diazocin-5-yl)carbamoyl)benzo[b]thiophen-5-yl)difluoro-methyl)phos-phoryl)bis(oxy)) bis(ethane-1,1-diyl) dipropyl bis(carbonate)], the 50% inhibitory concentration (IC50) in assay [1] and in assay [2] was above 3000 nM in each case.

As to `CNC(=O)[C@@H]1CC[C@@H]2CCN(C(=O)c3n[nH]c4ccc(C)cc34)C[C@H](NC(=O)c3ccc4ccc(C(F)(F)P(=O)(OCOC(=O)OC(C)C)OCOC(=O)OC(C)C)cc4c3)C(=O)N21` [Compound 328, (((difluoro(7-(((5S,8S,10aR)-3-(5-methyl-1H-indazole-3-carbonyl)-8-(methylcarbamoyl)-6-oxodecahydro-pyrrolo[1,2-a][1,5]diazocin-5-yl)carbamoyl)naphthalen-2-yl)methyl)phosphoryl)bis(oxy))bis(methylene) diisopropylbis(carbonate)], the values for the IC50 in assay [1] and in assay [2] were above 3000 nM and 100 to 1000 nM, respectively.

Regarding `CC(=O)N1CC[C@H]2CC[C@@H](C(=O)N(C)c3ccccc3)N2C(=O)[C@@H](NC(=O)c2ccc3cc(C(F)(F)P(=O)(OCOC(=O)C(C)(C)C)OCOC(=O)C(C)(C)C)ccc3c2)C1` [Compound 322, ((((6-(((5S,8S, 10aR)-3-acetyl-8-(methyl (phenyl)carbamoyl)-6-oxodecahydro-pyrrolo[1,2-a][1,5]diazocin-5-yl)carbamoyl)naphthalen-2-yl)difluoro-methyl)phos-phoryl)bis(oxy)) bis(methylene) bis(2,2-dimethylpro-panoate)], the IC50 in assay [1] and in assay [2] was above 3000 nM in each case.

On to `CNC(=O)[C@@H]1CC[C@@H]2CCN(C(=O)c3n[nH]c4ccc(C)cc34)C[C@H](NC(=O)c3ccc4ccc(C(F)(F)P(=O)(OCCSC(=O)CC(C)C)OCCSC(=O)CC(C)C)cc4c3)C(=O)N21` [Compound 329, S,S′-((((difluoro(7-(((5S,8S,10aR)-3-(5-methyl-1H-indazole-3-carbonyl)-8-(methylcarbamoyl)-6-oxodecahydropyrrolo[1,2-a][1,5]diazocin-5-yl)carbamoyl)naphthalen-2-yl)methyl)phosphoryl)bis(oxy))bis(ethane-2,1-diyl)) bis(3-methylbutanethioate)], for which the IC50 in assay [1] is 1000 to 3000 nM; in assay [2], at most 100 nM.

In general, IC50 refers to the midpoint of a concentration-inhibition curve. A high value points to weaker potency in that assay.

These data come from patent US20250179103A1, “6-OXODECAHYDROPYRROLO[1,2-A][1,5]DIAZOCINE AND 6-OXODECAHYDRO-4H-PYRROLO[2,1-D][1,5]THIAZOCINE DERIVATIVES AS STAT3 AND STAT6 MODULATORS FOR THE TREATMENT OF CANCER AND INFLAMMATORY CONDITIONS” (Recludix Pharma, Inc., priority 2022, published 2025).
